28 molecules from patent publication US10239870B2, “Dopamine D3 receptor antagonists” (priority 2014, dated 2019) can be followed below.

Where a name gives a salt, the structure may show the parent alone.

One experiment addresses hD2 recombinant receptor (human dopamine receptor type 2, long variant, CHO-Gα16-hD2L cells) (Homo sapiens (Human), UniProt P14416). The experiment in a line: cell-based. The conditions noted are these: D2 fpKi, functional pKi; antagonism of dopamine EC80 calcium response (FLIPR).
In the case of `Cn1c(SCCCN2CC[C@]3(CC3c3ccc(C(F)(F)F)cc3)C2)nnc1N1CCOCC1` (single isomer, unassigned) [Example 115], the Ki – broadly, a measure of affinity in units of concentration, obtained from inhibition or displacement – is 97.7 nM.
The same measure, in the same setting: to `Cc1ncoc1-c1nnc(SCCCN2CCC3(CC2)C[C@@H]3c2ccccc2)n1C` (single isomer, unassigned) [Example 309, (1S or 1R)-6-(3-{[4-methyl-5-(4-methyl-1,3-oxazol-5-yl)-4H-1,2,4-triazol-3-yl]sulfanyl}propyl)-1-phenyl-6-azaspiro[2.5]octane hydrochloride] belongs 1120 nM; to `Cn1c(CCCCN2CC[C@]3(C[C@H]3c3ccc(C(F)(F)F)cc3)C2)nnc1C1CCOCC1` (single isomer, unassigned) [Example 299, (1S,3S or 1R,3R)-5-{4-[4-methyl-5-(oxan-4-yl)-4H-1,2,4-triazol-3-yl]butyl}-1-[4-(trifluoromethyl)phenyl]-5-azaspiro[2.4]heptane hydrochloride], more than 10000 nM.
The same measure, in the same setting: to `Cn1c(SCCCN2CC[C@]3(C[C@H]3c3ccc(C(F)(F)F)cc3F)C2)nnc1C1CCOCC1` (single isomer, unassigned) [Example 75, (1R,3S or 1S,3R)-1-[2-fluoro-4-(trifluoromethyl)phenyl]-5-(3-{[4-methyl-5-(oxan-4-yl)-4H-1,2,4-triazol-3-yl]sulfanyl}propyl)-5-azaspiro[2.4]heptane hydrochloride] belongs more than 10000 nM; to `Cn1c(SCCCN2CC[C@]3(CC3c3ccc(C(F)(F)F)cc3F)C2)nnc1C1CCOCC1` (single isomer, unassigned) [Example 71], more than 10000 nM; to `Cc1ncoc1-c1nnc(CCCCN2CC[C@]3(CC3c3ccc(C(F)(F)F)cc3)C2)n1C` (stereo partly drawn) [Example 301, (1R,3S/1S,3R)-5-{4-[4-methyl-5-(4-methyl-1,3-oxazol-5-yl)-4H-1,2,4-triazol-3-yl]butyl}-1-[4-(trifluoromethyl)phenyl]-5-azaspiro[2.4]heptane hydrochloride], 1450 nM.
The same measure, in the same setting: under `Cn1c(CCCCN2CC[C@@]3(C[C@@H]3c3ccc(C(F)(F)F)cc3)C2)nnc1C1CCOCC1` (single isomer, unassigned) [Example 300, (1R,3R or 1S,3S)-5-{4-[4-methyl-5-(oxan-4-yl)-4H-1,2,4-triazol-3-yl]butyl}-1-[4-(trifluoromethyl)phenyl]-5-azaspiro[2.4]heptane hydrochloride] stands more than 10000 nM.
As to `Cn1c(SCCCN2CC[C@]3(CC3c3ccc(C(F)(F)F)cc3F)C2)nnc1-c1ccncn1` (stereo partly drawn) [Example 213, (1S,3S/1R,3R)-1-[2-fluoro-4-(trifluoromethyl)phenyl]-5-(3-{[4-methyl-5-(pyrimidin-4-yl)-4H-1,2,4-triazol-3-yl]sulfanyl}propyl)-5-azaspiro[2.4]heptane], the Ki was 81.3 nM.
Turning to `Cn1c(SCCCN2CC[C@]3(CC3c3ccccc3)C2)nnc1C1CCOCC1` (stereo partly drawn) [Example 80, (1R,3S/1S,3R)-5-(3-{[4-methyl-5-(oxan-4-yl)-4H-1,2,4-triazol-3-yl]-sulfanyl}propyl)-1-phenyl-5-azaspiro[2.4]heptane], the Ki was more than 10000 nM.
The same measure, in the same setting: under `Cn1c(SCCCN2CC[C@]3(C[C@@H]3c3ccccc3)C2)nnc1C1CCOCC1` (single isomer, unassigned) [Example 83, hydrochloride] stands more than 10000 nM; under `Cc1ncoc1-c1nnc(SCCCN2CCC[C@]3(C[C@@H]3c3ccc(C(F)(F)F)cc3)C2)n1C` [Example 313, (1S,3S/1R,3R)-5-(3-{[4-methyl-5-(4-methyl-1,3-oxazol-5-yl)-4H-1,2,4-triazol-3-yl]sulfanyl}propyl)-1-[4-(trifluoromethyl)phenyl]-5-azaspiro[2.5]octane], more than 10000 nM.
On the same count and under the same terms, to `CC(=O)N1CCC(c2nnc(SCCCN3CC[C@]4(C[C@@H]4c4ccc(C(F)(F)F)cc4)C3)n2C)CC1` (single isomer, unassigned) [Example 100] belongs 1170 nM.
The same measure, in the same setting: under `Cn1c(SCCCN2CC[C@]3(CC3c3ccc(C(F)(F)F)cc3)C2)nnc1N1CCOCC1` (single isomer, unassigned) [Example 114, hydrochloride] stands 1620 nM.
In the case of `Cn1c(SCCCN2CC[C@]3(C[C@@H]3c3ccc(C(F)(F)F)cc3)C2)nnc1-c1ccno1` [Example 229, (1R,3S/1S,3R)-5-(3-{[4-methyl-5-(1,2-oxazol-5-yl)-4H-1,2,4-triazol-3-yl]sulfanyl}propyl)-1-[4-(trifluoromethyl)phenyl]-5-azaspiro[2.4]heptane], the Ki is 2340 nM.
Still for that read-out and setting: to `Cn1c(CCCCN2CC[C@]3(C[C@@H]3c3ccc(C(F)(F)F)cc3F)C2)nnc1C1CCOCC1` (single isomer, unassigned) [Example 295, hydrochloride] belongs 871 nM.
Same read-out and setting: to `Cn1c(SCCCN2CC[C@]3(CC3c3ccc(C(F)(F)F)nc3)C2)nnc1C1CCOCC1` (stereo partly drawn) [Example 84, (1R,3S/1S,3R)-5-(3-{[4-methyl-5-(oxan-4-yl)-4H-1,2,4-triazol-3-yl]sulfanyl}propyl)-1-[6-(trifluoromethyl)pyridin-3-yl]-5-azaspiro[2.4]heptane] belongs more than 10000 nM; to `Cc1ncoc1-c1nnc(SCCCN2CCC[C@]3(C[C@H]3c3ccc(C(F)(F)F)cc3)C2)n1C` (racemic) [Example 310, (1R,3S/1S,3R)-5-(3-{[4-methyl-5-(4-methyl-1,3-oxazol-5-yl)-4H-1,2,4-triazol-3-yl]sulfanyl}propyl)-1-[4-(trifluoromethyl)phenyl]-5-azaspiro[2.5]octane], 19.1 nM.

The target of another experiment is hD2 recombinant receptor (human dopamine receptor type 2, long variant, CHO-Gα16-hD2L membranes) (Homo sapiens (Human), UniProt P14416).
Test: not given
The conditions noted are these: displacement of 0.08 nM [3H]-Spiperone.
As for `Cn1cccc1-c1nnc(SCCCN2CC[C@]3(CC3c3ccc(C(F)(F)F)cc3)C2)n1C` (stereo partly drawn) [Example 258, (1R,3S/1S,3R)-5-(3-{[4-methyl-5-(1-methyl-1H-pyrrol-2-yl)-4H-1,2,4-triazol-3-yl]sulfanyl}propyl)-1-[4-(trifluoromethyl)phenyl]-5-azaspiro[2.4]heptane], the “D2 pKi” value is given as 6.26.
`Cl.Cn1c(SCCCN2CC[C@]3(C[C@@H]3c3ccc(C(F)(F)F)cc3)C2)nnc1-c1ccc(-c2nnco2)cc1` [Example 274, (1R,3S)-5-[3-({4-methyl-5-[4-(1,3,4-oxadiazol-2-yl)phenyl]-4H-1,2,4-triazol-3-yl}sulfanyl)propyl]-1-[4-(trifluoromethyl)phenyl]-5-azaspiro[2.4]heptane]: the “D2 pKi” value came out at 6.52.
The same measure, in the same setting: under `Cn1c(SCCCN2CC[C@]3(C[C@@H]3c3ccc(C(F)(F)F)cc3F)C2)nnc1-c1ccn2cnnc2c1` [Example 270, (1S,3S)-1-[2-fluoro-4-(trifluoromethyl)phenyl]-5-{3-[(4-methyl-5-{[1,2,4]triazolo[4,3-a]pyridin-7-yl}-4H-1,2,4-triazol-3-yl)sulfanyl]propyl}-5-azaspiro[2.4]heptane] stands 6.04; under `CNC(=O)c1cccc(-c2nnc(SCCCN3CC[C@]4(C[C@@H]4c4ccc(C(F)(F)F)cc4)C3)n2C)n1.Cl` [Example 195, N-methyl-6-[4-methyl-5-({3-[(1R,3S)-1-[4-(trifluoromethyl)phenyl]-5-azaspiro[2.4]heptan-5-yl]propyl}sulfanyl)-4H-1,2,4-triazol-3-yl]pyridine-2-carboxamide hydrochloride], 5.84; under `Cn1c(SCCCN2CC[C@]3(CC3c3ccc(F)cc3F)C2)nnc1-c1ccc(=O)[nH]c1` (stereo partly drawn) [Example 130, 5-[5-({3-[(1S,3S/1R,3R)-1-(2,4-difluorophenyl)-5-azaspiro[2.4]heptan-5-yl]propyl}sulfanyl)-4-methyl-4H-1,2,4-triazol-3-yl]-1,2-dihydropyridin-2-one], 6.16.
Still for that read-out and setting: under `Cn1c(SCCCN2CC[C@]3(CC3c3ccc(C(F)(F)F)cc3)C2)nnc1-c1ccc[nH]c1=O` (stereo partly drawn) [Example 124, 3-[4-methyl-5-({3-[(1R,3S/1S,3R)-1-[4-(trifluoromethyl)phenyl]-5-azaspiro[2.4]heptan-5-yl]propyl}sulfanyl)-4H-1,2,4-triazol-3-yl]-1,2-dihydropyridin-2-one] stands 5.32; under `Cn1c(SCCCN2CC[C@]3(CC3c3ccc(C(F)(F)F)cc3F)C2)nnc1-c1cccc(=O)[nH]1` (stereo partly drawn) [Example 123, 6-[5-({3-[(1R,3S/1S,3R)-1-[2-fluoro-4-(trifluoromethyl)phenyl]-5-azaspiro[2.4]heptan-5-yl]propyl}sulfanyl)-4-methyl-4H-1,2,4-triazol-3-yl]-1,2-dihydropyridin-2-one], 6.00; under `Cn1c(SCCCN2CC[C@]3(CC3c3ccc(C(F)(F)F)cc3F)C2)nnc1-c1ccc(=O)[nH]c1` (stereo partly drawn) [Example 129, 5-[5-({3-[(1S,3S/1R,3R)-1-[2-fluoro-4-(trifluoromethyl)phenyl]-5-azaspiro[2.4]heptan-5-yl]propyl}sulfanyl)-4-methyl-4H-1,2,4-triazol-3-yl]-1,2-dihydropyridin-2-one], 6.35.
On the same count and under the same terms, to `Cn1c(SCCCN2CC[C@]3(C[C@@H]3c3ccc(C(F)(F)F)cc3)C2)nnc1-c1cnc(C(N)=O)cn1` [Example 228, 5-[4-methyl-5-({3-[(1R,3S)-1-[4-(trifluoromethyl)phenyl]-5-azaspiro[2.4]heptan-5-yl]propyl}sulfanyl)-4H-1,2,4-triazol-3-yl]pyrazine-2-carboxamide] belongs 6.33.
Regarding `CC(=O)N1CCC(c2nnc(SCCCN3CC[C@]4(C[C@@H]4c4ccc(C(F)(F)F)cc4F)C3)n2C)CC1.Cl` [Example 102, 1-{4-[5-({3-[(1S,3S)-1-[2-fluoro-4-(trifluoromethyl)phenyl]-5-azaspiro[2.4]heptan-5-yl]propyl}sulfanyl)-4-methyl-4H-1,2,4-triazol-3-yl]piperidin-1-yl}ethan-1-one hydrochloride], the “D2 pKi” value turned out to be 6.00.
Still for that read-out and setting: under `Cc1ccc(C(N)=O)nc1-c1nnc(SCCCN2CC[C@]3(C[C@@H]3c3ccc(C(F)(F)F)cc3)C2)n1C.Cl` [Example 199, 5-methyl-6-[4-methyl-5-({3-[(1R,3S)-1-[4-(trifluoromethyl)phenyl]-5-azaspiro[2.4]heptan-5-yl]propyl}sulfanyl)-4H-1,2,4-triazol-3-yl]pyridine-2-carboxamide hydrochloride] stands 5.81.
